Measured values taken from patent US11925624B2, “Methods of administering anti-fibrotic therapy” (GENENTECH, INC., priority 2016, dated 2024).
Where two headings read alike, the source gives them in different places.

Test: Phase 1 Part A proton pump inhibitor (rabeprazole) effect on single-dose pharmacokinetics
Assay type: in vivo, human
Details: for AUC0-t (norm) / AUC0-∞ (norm) / CL/F / CL/F(norm) / Cmax (norm) / λZ / % AUCextrap / AUC(0-inf) / AUC(0-t) / Cmax / half-life / Tmax / Vd/F: +20 mg Rabeprazole QD x 3; for % AUCextrap: arithmetic mean; for AUC(0-inf) / AUC(0-t) / Cmax / half-life / Tmax / Vd/F: human, plasma, oral; for Tmax: median
From the text: This study was a randomized, blinded, placebo-controlled, ascending-dose study to evaluate the safety, tolerability, and pharmacokinetic (PK) of single (Part A) and multiple (Part B) doses of Compound I in healthy subjects. In addition, the effects of a standard high-fat breakfast, standard low-fat breakfast, and pretreatment and co-administration of a proton pump inhibitor (PPI) on the tolerability and PK of a single dose of Compound I were investigated in 2 groups in Part A. All subjects received their full dose of Compound I, administered as the appropriate number of either 25 or 200 mg tablets. The high fat breakfast comprised the following: total energy: 895 kcal; total fat: 61 g; total protein: 41 g; total carbohydrate: 46 g. The low fat breakfast comprised the following: total energy: 611 kcal; total fat: 14.7 g; total protein: 20.3 g; total carbohydrate: 106.3 g.
For Group A4, doses (400 mg Compound I or placebo) during Treatment Period 1 were administered in a fasted state on the morning of Day 1. Doses in Treatment Period 2 were administered 30 minutes after starting, and within approximately 10 minutes of completing, a high-fat standard breakfast on the morning of Day 1. Doses during Treatment Period 3 were administered 30 minutes after starting, and within approximately 10 minutes of completing a low-fat standard meal on the morning of Day 1. Doses during Treatment Period 4 were administered on Day 1 after an overnight fast and following administration of a PPI (rabeprazole 20 mg) for 3 days (given as 3 daily [QD] doses, with the final PPI dose at 2 hours prior to study drug administration on Day 1). Subjects in Group A4 received the same Compound I or placebo treatment in all treatment periods, such that each subject received up to 4 single doses of Compound I or placebo.
For Group A5, doses (800 mg Compound I or placebo) during Treatment Period 1 were administered in a fasted state on the morning of Day 1, doses during Treatment Period 2 were administered 30 minutes after starting a low-fat standard breakfast on the morning of Day 1, and doses during Treatment Period 3 were administered on Day 1 after a low-fat meal and following administration of a PPI (rabeprazole 20 mg) for 3 days (given as 3 QD doses, with the final PPI dose at 2 hours prior to study drug administration on Day 1). Subjects in Group A5 received the same Compound I or placebo treatment in all treatment periods, such that each subject received up to 3 single doses of Compound I or placebo.
In Part A, all doses in Treatment Period 1 were administered after an overnight fast of at least 8 hours. For the A4 cohort, in Treatment Periods 2 and 3, doses were administered 30 minutes after starting and approximately 10 minutes after completing a high- or low-fat breakfast. In Treatment Period 4, the dose was administered after an overnight fast and following administration of a PPI (PPI was comprised of 3 doses of rabeprazole 20 mg, starting on Day −2 and with the final dose 2 hours before Compound I administration on Day 1). For Group A5, doses during Treatment Period 2 were administered 30 minutes after starting and approximately 10 minutes after completing a low-fat standard breakfast on the morning of Day 1, and doses during Treatment Period 3 were administered on Day 1 after a low-fat meal and following administration of a PPI for 3 days (given as 3 QD doses, with the final PPI dose at 2 hours prior to study drug administration on Day 1).

[1] = 400 mg Fasted + 20 mg Rabeprazole QD x 3 (Test) vs 400 mg Fasted (Reference)
[2] = 400 mg single dose (A4), Fasted
[3] = 800 mg Fed, Low-fat + 20 mg Rabeprazole QD x 3 (Test) vs 800 mg Fed, Low-fat (Reference)
[4] = 800 mg single dose (A5), Fed, Low-fat
[5] = pretreatment and co-administration of 20 mg rabeprazole (QD×3), low-fat fed state, compared to Compound I alone

Cn1cc(-c2cn(-c3ccc(OC(F)(F)F)cc3)c(=O)c3ncn(C)c23)cn1 [Compound I]
Test/Reference ratio of LS means, AUC0-t [1]: 86.4% | Test/Reference ratio of LS means, AUC0-∞ [1]: 87.2% | Test/Reference ratio of LS means, Cmax [1]: 83.6% | AUC0-t (norm) [2]: 8130 (hr*ng/mL)/(mg/kg) | AUC0-∞ (norm) [2]: 8410 (hr*ng/mL)/(mg/kg) | CL/F [2]: 139 mL/min | CL/F(norm) [2]: 1.98 (mL/min)/kg | Cmax (norm) [2]: 660 ng/mL/mg/kg | λZ [2]: 0.0603 h⁻¹ | % AUCextrap [2]: 3.25% | Test/Reference ratio of LS means, AUC0-t [3]: 76.5% | Test/Reference ratio of LS means, AUC0-∞ [3]: 77.2% | Test/Reference ratio of LS means, Cmax [3]: 75.0% | AUC0-t (norm) [4]: 11000 (hr*ng/mL)/(mg/kg) | AUC0-∞ (norm) [4]: 11100 (hr*ng/mL)/(mg/kg) | CL/F [4]: 108 mL/min | CL/F(norm) [4]: 1.50 (mL/min)/kg | Cmax (norm) [4]: 900 ng/mL/mg/kg | λZ [4]: 0.0666 h⁻¹ | % AUCextrap [4]: 1.27% | AUC(0-inf) [2]: 48100 ng·h/mL | AUC(0-t) [2]: 46500 ng·h/mL | Cmax [2]: 3770 ng/mL | half-life [2]: 10.5 h | Tmax [2]: 2.5 h | Vd/F (400 mg single dose (A4), Fasted, read-out: Vz/F): 138 L | Vd/F (400 mg single dose (A4), Fasted, read-out: Vz/F(norm)): 1.97 L/kg | AUC(0-inf) [4]: 124000 ng·h/mL | AUC(0-t) [4]: 122000 ng·h/mL | Cmax [4]: 10000 ng/mL | half-life [4]: 8.92 h | Tmax [4]: 3 h | Vd/F (800 mg single dose (A5), Fed, Low-fat, read-out: Vz/F): 97.2 L | Vd/F (800 mg single dose (A5), Fed, Low-fat, read-out: Vz/F(norm)): 1.35 L/kg | Decrease in AUC0-t [5]: 23.5% | Decrease in AUC0-∞ [5]: 22.8% | Decrease in Cmax [5]: 25.0%
